ChEMBL document CHEMBL1150053, “Scalarane-type bishomosester terpenes from the sponge Phyllospongia foliascens” (J Nat Prod, 1992)
≈ marks a conversion by molar mass, not a printed value.

Test system: KB
Experiment: Cytotoxicity against human KB cells
Format: functional, cell-based

SMILES | IC50
CCC(O)CC(=O)O[C@@H]1C[C@@H]2[C@@]3(C)CCC[C@](C)(CC)[C@@H]3CC[C@@]2(C)[C@@H]2C[C@@H](O)C3=C(C(=O)O[C@@H]3C)[C@@]12C (some centres not stated) [PHYLLACTONE A] | 20 µg/mL (≈ 37.7 µM)
CCC(O)CC(=O)O[C@@H]1C[C@@H]2[C@@]3(C)CCC[C@](C)(CC)[C@@H]3CC[C@@]2(C)[C@@H]2C[C@@H](O)C3=C(C(=O)O[C@H]3C)[C@@]12C (some centres not stated) [PHYLLACTONE B] | 20 µg/mL (≈ 37.7 µM)
